Results from patent US20260325605A1, “INHIBITORS” (Zealand Pharma A/S, priority 2022, published 2026).

Assays:
Kv1.2 = molecular target: T1, Kv1.2 (Homo sapiens, UniProt P16389); experiment: Patch clamp assay (QPatch), Kv1.2; type: cell-based; details: for IC50: QPatch, CHO cells stably expressing human Kv1.2, read-out: Potency IC50, Kv1.2; for Selectivity Kv1.2/Kv1.3: ratio of IC50 Kv1.2/Kv1.3
T1 construct: expressed in transfected cells

Kv1.6 = molecular target: T2, Kv1.6 (Homo sapiens, UniProt P17658); experiment: Patch clamp assay (QPatch), Kv1.6; type: cell-based; details: for IC50: QPatch, CHO cells stably expressing human Kv1.6, read-out: Potency IC50, Kv1.6; for Selectivity Kv1.6/Kv1.3: ratio of IC50 Kv1.6/Kv1.3
T2 construct: expressed in transfected cells
T2 sequence (P17658 whole entry): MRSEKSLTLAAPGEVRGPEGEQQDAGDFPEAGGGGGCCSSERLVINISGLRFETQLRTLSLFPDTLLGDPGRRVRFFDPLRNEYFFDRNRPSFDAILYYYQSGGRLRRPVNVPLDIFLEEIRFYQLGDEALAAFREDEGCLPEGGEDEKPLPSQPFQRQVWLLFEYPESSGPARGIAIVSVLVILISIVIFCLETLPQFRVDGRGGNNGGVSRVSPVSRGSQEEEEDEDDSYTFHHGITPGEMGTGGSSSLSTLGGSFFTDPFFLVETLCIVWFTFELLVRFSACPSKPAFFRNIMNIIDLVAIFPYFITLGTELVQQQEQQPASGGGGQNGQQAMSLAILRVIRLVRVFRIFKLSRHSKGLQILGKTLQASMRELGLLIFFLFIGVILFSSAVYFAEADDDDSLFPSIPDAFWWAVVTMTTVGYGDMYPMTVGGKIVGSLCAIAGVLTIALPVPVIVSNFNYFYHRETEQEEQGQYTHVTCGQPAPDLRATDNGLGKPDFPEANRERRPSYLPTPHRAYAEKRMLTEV

[1] = test system: T-cell activation in rat whole blood; experiment: Example 4: IL-17A release in thapsigargin stimulated rat whole blood; type: cell-based, rat (Lewis or Sprague-Dawley); details: 24 Hr, at least 2 replicates, unit inferred, read-out: IC50 (inhibition of IL-17A release)
Source text: Rat whole blood was used to assess the potency of Kv1.3 inhibitor peptides on T-cell activation as determined by IL-17A release after stimulation with thapsigargin. Addition of thapsigargin results in activation of a signalling cascade ending up in activation of T cell proliferation and cytokine production where the Kv1.3 ion channel plays a key role, so activity of Kv1.3 inhibitors in primary cells can be measured in this experimental system.
Rat whole blood was obtained from healthy, naïve Lewis or Sprague-Dawley rats that were terminally bleed from the heart using Sodium Heparin blood sampling tubes for collection. Peptides were diluted to 4× final testing concentrations in assay buffer (DMEM+GlutaMAX), GlutaMAX is a medium comprising 3.97 mM L-alanine-L-glutamine (Gibco Cat #61965026) supplemented with 25 mM HEPES buffer, 1 mM Sodium Pyruvate, 100 units/ml Penicillin, 100 μg/ml Streptomycin and 0.05% Casein from bovine milk (Sigma-Aldrich)) and 25 μl was added to wells of a 96 well plate. Then 50 μl whole rat blood was added and incubated for minimum 5 minutes at room temperature to allow compound binding. Then 25 μl 40 μM thapsigargin diluted in assay buffer was added to all wells of the assay plates to activate the cells, followed by incubation for 24 Hr at 37° C./5% CO2 in a humidified box. The assay plates were centrifuged for 10 min at 300 g at 4° C. and the supernatants were transferred to new plates. The concentrations of IL-17A released to the supernatants were measured using a Rat IL-17A ELISA Kit (Abcam Cat #ab214028) as recommended by the manufacturer. Samples were diluted 2.5-fold by transferring 20 μl of the supernatants to wells on ELISA plates containing 30 μl buffer 75BS from the detection kit.
Data from peptides eliciting an inhibition of IL-17A were normalised relative to full thapsigargin activation (no inhibitor added) and no activation controls (addition of assay buffer instead of thapsigargin) to calculate the IC50 from the concentration response curve.
Results are shown in Table 5, expressed as IC50, with standard deviation (IC50_SD). All values are derived from at least 2 replicates. The biological effects ex vivo show a correlation with the potency of the peptides.

Kv1.3 = molecular target: T3, Kv1.3 (Homo sapiens, UniProt P22001); experiment: Patch clamp assay (QPatch), Kv1.3; type: cell-based; details: CHO cells stably expressing human Kv1.3, read-out: Potency IC50, Kv1.3
T3 construct: expressed in transfected cells
T3 sequence (P22001 whole entry): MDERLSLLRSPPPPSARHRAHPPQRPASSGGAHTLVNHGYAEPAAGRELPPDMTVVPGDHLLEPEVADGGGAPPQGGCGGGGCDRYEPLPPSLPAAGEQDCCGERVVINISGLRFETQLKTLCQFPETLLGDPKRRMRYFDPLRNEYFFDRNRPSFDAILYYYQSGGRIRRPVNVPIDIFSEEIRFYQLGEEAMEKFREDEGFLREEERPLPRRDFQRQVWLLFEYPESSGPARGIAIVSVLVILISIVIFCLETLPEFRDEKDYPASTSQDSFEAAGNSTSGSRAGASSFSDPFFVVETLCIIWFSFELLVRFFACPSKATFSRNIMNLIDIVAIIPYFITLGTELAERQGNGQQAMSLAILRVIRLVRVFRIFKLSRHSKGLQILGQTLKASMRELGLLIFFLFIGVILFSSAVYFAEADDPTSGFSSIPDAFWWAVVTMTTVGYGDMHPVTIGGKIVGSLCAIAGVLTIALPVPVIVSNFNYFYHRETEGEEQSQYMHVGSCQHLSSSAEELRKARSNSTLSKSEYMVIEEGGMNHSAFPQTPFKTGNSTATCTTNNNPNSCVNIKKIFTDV

Kv1.1 = molecular target: T4, Kv1.1 (Homo sapiens, UniProt Q09470); experiment: Patch clamp assay (QPatch), Kv1.1; type: cell-based; details: for IC50: QPatch, CHO cells stably expressing human Kv1.1, read-out: Potency IC50, Kv1.1; for Selectivity Kv1.1/Kv1.3: ratio of IC50 Kv1.1/Kv1.3
T4 construct: expressed in transfected cells
T4 sequence (Q09470 whole entry): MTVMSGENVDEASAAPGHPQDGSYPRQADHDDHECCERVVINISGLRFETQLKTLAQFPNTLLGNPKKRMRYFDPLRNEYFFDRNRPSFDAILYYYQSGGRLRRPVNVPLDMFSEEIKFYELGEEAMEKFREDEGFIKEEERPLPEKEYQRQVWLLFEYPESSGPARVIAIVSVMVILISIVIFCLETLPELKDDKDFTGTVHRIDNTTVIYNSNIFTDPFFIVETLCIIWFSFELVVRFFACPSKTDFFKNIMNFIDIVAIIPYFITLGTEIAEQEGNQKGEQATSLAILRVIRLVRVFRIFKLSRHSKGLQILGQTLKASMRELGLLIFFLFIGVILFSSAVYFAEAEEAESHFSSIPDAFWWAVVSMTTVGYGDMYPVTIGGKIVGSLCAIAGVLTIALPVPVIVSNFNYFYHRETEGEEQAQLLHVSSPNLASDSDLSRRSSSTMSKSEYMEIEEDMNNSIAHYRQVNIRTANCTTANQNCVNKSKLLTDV
Experimental: Selectivity of Kv1.3 inhibitor peptides for Kv1.3 over other potassium ion channels (Kv1.1, Kv1.2 and Kv1.6) was determined using patch clamp assay.
Chinese Hamster Ovary (CHO) cell lines stably expressing exogenous human α-subunits of each potassium ion channel were grown and passaged under standard culture conditions.
The automated, chip-based planar patch clamp device QPatch® was used to quantitate the ionic currents. All recordings were made in the conventional whole-cell configuration after establishment of gigaohm seals. […] During experiments 0.1% (v/v) BSA was included as a vehicle in all external recording solutions. Currents were elicited from a holding potential of −80 mV using a voltage protocol, which shifted the voltage to 30 mV for 500 ms every 15 s.
Concentration-response relationships were established by cumulatively applying seven escalating concentrations of test sample to an individual cell with a recording period of 2 min per compound application.
The efficacy was determined as the mean charge for the last three sweeps at the end of each concentration application period from the cursor positions. The percent inhibition for each test dose application period was calculated as the reduction in mean cursor value (charge) relative to the cursor value measured at the end of the vehicle period and used to calculate the IC50 from the concentration response curve.

T1 sequence (P16389 whole entry): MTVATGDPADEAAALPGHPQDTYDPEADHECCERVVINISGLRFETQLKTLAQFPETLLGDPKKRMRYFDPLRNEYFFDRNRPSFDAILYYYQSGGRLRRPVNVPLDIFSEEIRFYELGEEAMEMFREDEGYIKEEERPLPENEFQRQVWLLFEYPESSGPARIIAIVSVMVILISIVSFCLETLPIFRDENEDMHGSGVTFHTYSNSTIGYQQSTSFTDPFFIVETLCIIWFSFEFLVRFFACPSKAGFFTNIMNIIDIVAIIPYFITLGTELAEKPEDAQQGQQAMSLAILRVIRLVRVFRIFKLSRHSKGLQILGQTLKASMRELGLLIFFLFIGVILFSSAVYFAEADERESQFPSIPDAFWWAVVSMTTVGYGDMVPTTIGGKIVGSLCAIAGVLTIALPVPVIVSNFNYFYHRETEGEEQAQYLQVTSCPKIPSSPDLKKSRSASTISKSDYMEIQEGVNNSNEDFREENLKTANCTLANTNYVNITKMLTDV

| Substance | IC50 (Kv1.2) | Selectivity Kv1.2/Kv1.3 (Kv1.2) | IC50 (Kv1.6) | Selectivity Kv1.6/Kv1.3 (Kv1.6) | IC50 [1] | IC50 (Kv1.3) | IC50 (Kv1.1) | Selectivity Kv1.1/Kv1.3 (Kv1.1) |
| --- | --- | --- | --- | --- | --- | --- | --- | --- |
| H-N[Nle]D[Nle]RC(1)SASVEC(2)KQKC(3)KAIGSIFGKC(1)[Nle]NKKC(2)KC(3)YPR-NH2 [Peptide 50] | 164 nM | 123 | 946 nM | 707 | 1 nM | 1.34 nM | > 3000 nM | >2200 |
| H-NMDMRC(1)SASVQC(2)KQKC(3)LKAIGSIFGKC(1)MNKKC(2)KC(3)YPR-NH2 [Peptide 29] | 16 nM | 83 | 252 nM | 1272 | 0.53 nM | 0.2 nM | > 3000 nM | >15200 |
| H-NMDMRC(1)SISVEC(2)KQKC(3)LKAIGSIFGKC(1)MNKKC(2)KC(3)YPR-NH2 [Peptide 27] | 43 nM | 169 | > 3000 nM | >11800 | 0.61 nM | 0.26 nM | > 3000 nM | >11800 |
| H-V[Nle]D[Nle]RC(1)SASVEC(2)KQKC(3)LKAIGSIFGKC(1)[Nle]NKKC(2)KC(3)YPR-NH2 [Peptide 69] |  |  |  |  | 0.98 nM | 0.32 nM |  |  |
| H-NMDMRC(1)SASVEC(2)KQKC(3)LKAIGSKFGKC(1)MNKKC(2)KC(3)YPR-NH2 [Peptide 35] | 100 nM | 237 | 207 nM | 490 | 2.1 nM | 0.42 nM | > 3000 nM | >7100 |
| Ac-SKC(1)SASVEC(2)KQKC(3)LKAIGSIFGKC(1)[Nle]NKKC(2)KC(3)YPR-NH2 [Peptide 113] | 196 nM | 196 | 1450 nM | 1451 | 0.36 nM | 1 nM | > 3000 nM | >3000 |
| H-N[Nle]D[Nle]RC(1)SASKEC(2)KQKC(3)LKAIGSIFGKC(1)[Nle]NKKC(2)KC(3)YPR-NH2 [Peptide 64] | 184 nM | 587 | 1230 nM | 3929 | 0.68 nM | 0.31 nM | > 3000 nM | >9600 |
| H-RC(1)SASVEC(2)KQKC(3)LKAIGSIFGKC(1)[Nle]NKKC(2)KC(3)YPR-NH2 [Peptide 111] | 280 nM | 708 | 1300 nM | 3290 | 0.52 nM | 0.4 nM | > 3000 nM | >7600 |
| H-S[Nle]D[Nle]RC(1)SASVEC(2)KQKC(3)LKAIGSIFGKC(1)MNKKC(2)RC(3)YPR-NH2 [Peptide 77] |  |  |  |  | 0.86 nM | 0.13 nM |  |  |
| H-H[Nle]D[Nle]RC(1)SASVEC(2)KQKC(3)LKAIGSIFGKC(1)[Nle]NKKC(2)KC(3)YPR-NH2 [Peptide 65] |  |  |  |  | 1.2 nM | 0.25 nM |  |  |
| H-S[Nle]D[Nle]RC(1)SASVEC(2)KQKC(3)LKAIGSIFGKC(1)[Nle]NKKC(2)KC(3)YPR-NH2 [Peptide 67] |  |  |  |  | 0.47 nM | 0.18 nM |  |  |
| H-NMDMRC(1)SASVEC(2)KLKC(3)LKAIGSIFGKC(1)MNKKC(2)KC(3)YPR-NH2 [Peptide 33] |  |  |  |  | 0.75 nM | 0.38 nM |  |  |
| H-Y[Nle]D[Nle]RC(1)SASVEC(2)KQKC(3)LKAIGSIFGKC(1)[Nle]NKKC(2)KC(3)YPR-NH2 [Peptide 66] |  |  |  |  | 1.1 nM | 0.14 nM |  |  |
| H-AAAISCVGSPECPPKCRAQGCKNGKCMNRKCKCYYC-NH2 [Vm24, reference compound] | 4.7 nM | 31 | 21 nM | 139 |  | 0.15 nM | 0.097 nM | 0.65 |
